In the assay the target is WDR5 protein (Homo sapiens (Human), UniProt P61964). As to the kind of experiment: Surface Plasmon Resonance (SPR) assay. The format is binding. As to conditions: for residence time: τ=1/koff, read-out: Residence Time (t, min).
The mark [1] stands for this setting: SPR, Table 1, read-out: WDR5 binding affinity (KD).
The mark [2] stands for this setting: SPR, Table 2, read-out: WDR5 binding affinity SPR (KD).
The mark [3] stands for this setting: Table 4, effect of Fluoro-substitution, read-out: KD (SPR).

Where two headings read alike, the source gives them in different places.

Broadly, the Kd is the free concentration of one partner at which half of the binding sites on the other are occupied at equilibrium, for simple one-to-one binding. Broadly, the residence time is the mean lifetime of the complex, commonly the reciprocal of the off-rate.

Description: Exemplary compounds of the application were dissolved in 100% DMSO at 10 mM, assayed fresh, and then stored at −20° C. for repeat studies and other experiments. Full length WDR5 with an N-terminal His tag and C-terminal AviTag (Avidity Inc.) was expressed in E. coli with coexpression of BirA to biotin label the protein in vivo. Purification was via Ni-NTA. The purified WDR5 protein has a molecular weight of 41976 Da.
SPR studies were performed using a Biacore™ T200 instrument (GE Health Sciences Inc.). Biotinylated WDR5 protein (approximately 3000RU) was stably captured to streptavidin coupled SA chips according to the manufacture's protocol (GE Health Sciences Inc.). The running buffer used was HBS-EP (20 mM Hepes pH 7.4, 150 mM NaCl, 3 mM EDTA, 0.05% P-20) plus 5% DMSO with a flow rate of 40p1/min. For SPR analysis, 5 different concentrations of each exemplary compound of the application were sprayed into 96 or 384 well plates using an HP D300 digital dispenser. […] Curve fitting and KD calculations were performed with the Biacore T200 Evaluation software (GE Health Sciences Inc).

Turning to `CN1CCN(c2ccc(-c3cc(C(N)=O)c(O)cc3F)cc2NC(=O)c2c[nH]c(=O)cc2C(F)(F)F)CC1` [Example 4, N-(5′-carbamoyl-2′-fluoro-4′-hydroxy-4-(4-methylpiperazin-1-yl)-[1,1′-biphenyl]-3-yl)-6-oxo-4-(trifluoromethyl)-1,6-dihydropyridine-3-carboxamide], the Kd under setting [1] was found to be 86 nM and the Kd under setting [2] stood at 86 nM. For the same molecule, for the setting “SPR”, the residence time worked out at 0.88 min.
For `Cc1c(F)ccc(C(=O)Nc2cc(-c3cc(CN4CCOCC4)ccc3F)ccc2N2CCN(C)CC2)c1Cl` [Example 12, 2-chloro-4-fluoro-N-(2′-fluoro-4-(4-methylpiperazin-1-yl)-5′-(morpholinomethyl)-[1,1′-biphenyl]-3-yl)-3-methylbenzamide], the Kd was 93 nM under setting [1] and 93 nM under setting [2]. For the same molecule, under “SPR”, the residence time stood at 0.6 min.
For the molecule `CNc1cc(C(F)(F)F)c(C(=O)Nc2cc(-c3cc(CN4CCOCC4)ccc3F)ccc2N2CCN(C)CC2)cn1` [Example 108, N-(2′-fluoro-4-(4-methylpiperazin-1-yl)-5′-(morpholinomethyl)-[1,1′-biphenyl]-3-yl)-6-(methylamino)-4-(trifluoromethyl)nicotinamide], the Kd under setting [1] is greater than 200 nM and the Kd under setting [2] is greater than 200 nM.
For the molecule `CN1CCN(c2ccc(-c3cc(C(=O)NC4CCCCC4)ccc3F)cc2NC(=O)c2c[nH]c(=O)cc2C(F)(F)F)CC1` [drawing 291], the Kd under setting [3] is 6 nM.
With `CN1CCN(c2ccc(-c3ccc(N4CCCC4)nc3F)cc2NC(=O)c2c[nH]c(=O)cc2C(F)(F)F)CC1` [Example 22, N-(5-(2-fluoro-6-(pyrrolidin-1-yl)pyridin-3-yl)-2-(4-methylpiperazin-1-yl)phenyl)-6-oxo-4-(trifluoromethyl)-1,6-dihydropyridine-3-carboxamide], the Kd came out at 17 nM under setting [1] and 17 nM under setting [2]. The residence time (SPR) was 2.3 min.
As for `COc1cc(C(F)(F)F)c(C(=O)Nc2cc(-c3cc(CN4C5COCC4C5)ccc3F)ccc2N2CCN(C)CC2)cn1` [Example 56, N-(5′-(3-oxa-6-azabicyclo[3.1.1]heptan-6-ylmethyl)-2′-fluoro-4-(4-methylpiperazin-1-yl)-[1,1′-biphenyl]-3-yl)-6-methoxy-4-(trifluoromethyl)nicotinamide], the Kd was greater than 200 nM under setting [1] and greater than 200 nM under setting [2].
For `CN1CCN(c2ncc(-c3cc(CNC4CCCCC4)ccc3F)cc2NC(=O)c2c[nH]c(=O)cc2C(F)(F)F)CC1` [Example 85, N-(5-(5-((cyclohexylamino)methyl)-2-fluorophenyl)-2-(4-methylpiperazin-1-yl)pyridin-3-yl)-6-oxo-4-(trifluoromethyl)-1,6-dihydropyridine-3-carboxamide], the Kd reads like this: under setting [1], 15 nM; under setting [2], 14.8 nM. Moreover, under “SPR”, the residence time is 0.78 min.
Take `C[C@H]1CN(C)CCN1c1ccc(-c2cc(CN3CCOCC3)ccc2F)cc1NC(=O)c1c[nH]c(=O)cc1C(F)(F)F` [Example 104, (S)—N-(4-(2,4-dimethylpiperazin-1-yl)-2′-fluoro-5′-(morpholinomethyl)-[1,1′-biphenyl]-3-yl)-6-oxo-4-(trifluoromethyl)-1,6-dihydropyridine-3-carboxamide]: the Kd stood at 4000 nM under setting [1] and 4000 nM under setting [2].
As for `Cc1cc(C(=O)Nc2cc(-c3cc(CN4CCOCC4)ccc3F)ccc2N2CCC(N(C)C)C2)cc(C)c1F` (stereo not drawn) [Example 91, N-(4-(3-(dimethylamino)pyrrolidin-1-yl)-2′-fluoro-5′-(morpholinomethyl)-[1,1′-biphenyl]-3-yl)-4-fluoro-3,5-dimethylbenzamide], the Kd under setting [1] amounted to 316 nM and the Kd under setting [2] was 316 nM.
For the molecule `C[C@@H]1CN(c2ccc(-c3c(F)cc(CNC4CCCCC4)cc3F)cc2NC(=O)c2c[nH]c(=O)cc2C(F)(F)F)C[C@H](C)N1C` [Example 115, N-(4′-((cyclohexylamino)methyl)-2′,6′-difluoro-4-((3S,5R)-3,4,5-trimethylpiperazin-1-yl)-[1,1′-biphenyl]-3-yl)-6-oxo-4-(trifluoromethyl)-1,6-dihydropyridine-3-carboxamide], the Kd was 55 nM under setting [1] and 55 nM under setting [2]. For the same molecule, where the note is “SPR”, the residence time was 1.5 min.
On to `CN1CCN(c2ccc(-c3cc(CN4CCOCC4)ccc3F)cc2NC(=O)c2ccc(=O)[nH]c2)CC1` [Example 105, N-(2′-fluoro-4-(4-methylpiperazin-1-yl)-5′-(morpholinomethyl)-[1,1′-biphenyl]-3-yl)-6-oxo-1,6-dihydropyridine-3-carboxamide], for which the Kd was 1950 nM under setting [1] and 1950 nM under setting [2].
For the molecule `CN1CCN(c2ccc(-c3cc(CN4CCOCC4)ccc3Cl)cc2NC(=O)c2c[nH]c(=O)cc2C(F)(F)F)CC1` [drawing 288, reference compound], under setting [3], the Kd was determined as 34.5 nM.
On to `C[C@@H]1CN(c2ccc(-c3cc(C(N)=O)c(F)cc3F)cc2NC(=O)c2c[nH]c(=O)cc2C(F)(F)F)C[C@H](C)N1C` [Example 121, N-(5′-carbamoyl-2′,4′-difluoro-4-((3S,5R)-3,4,5-trimethylpiperazin-1-yl)-[1,1′-biphenyl]-3-yl)-6-oxo-4-(trifluoromethyl)-1,6-dihydropyridine-3-carboxamide], for which the Kd reads like this: under setting [1], 9.2 nM; under setting [2], 9 nM. The residence time (SPR) is 2.3 min.
Regarding `C[C@@H]1CN(c2ccc(-c3cc(C(N)=O)ccc3F)cc2NC(=O)c2c[nH]c(=O)cc2C(F)(F)F)C[C@H](C)N1C` [Example 119, N-(5′-carbamoyl-2′-fluoro-4-((3S,5R)-3,4,5-trimethylpiperazin-1-yl)-[1,1′-biphenyl]-3-yl)-6-oxo-4-(trifluoromethyl)-1,6-dihydropyridine-3-carboxamide], the Kd was 3.7 nM under setting [1] and 4 nM under setting [2]. The residence time (SPR) came out at 2.8 min.
For the molecule `CN1CCN(c2ccc(-c3cc(OCC4CC4)c(F)cc3F)cc2NC(=O)c2c[nH]c(=O)cc2C(F)(F)F)CC1` [Example 21, N-(5′-(cyclopropylmethoxy)-2′,4′-difluoro-4-(4-methylpiperazin-1-yl)-[1,1′-biphenyl]-3-yl)-6-oxo-4-(trifluoromethyl)-1,6-dihydropyridine-3-carboxamide], the dissociation constant Kd reads like this: under setting [1], 19 nM; under setting [2], 19 nM. Besides, for the setting “SPR”, the residence time came to 1.75 min.
Take `C[C@@H]1CN(c2ccc(-c3cc(C(=O)NC(C)(C)CC(C)(C)C)c(F)cc3F)cc2NC(=O)c2c[nH]c(=O)cc2C(F)(F)F)C[C@H](C)N1C` [Example 120, N-(2′,4′-difluoro-5′-((2,4,4-trimethylpentan-2-yl)carbamoyl)-4-((3S,5R)-3,4,5-trimethylpiperazin-1-yl)-[1,1′-biphenyl]-3-yl)-6-oxo-4-(trifluoromethyl)-1,6-dihydropyridine-3-carboxamide]: the Kd was determined as 6 nM under setting [1] and 6 nM under setting [2]. Where the note is “SPR”, the residence time was 12.5 min.
With `COc1cc(C(F)(F)F)c(C(=O)Nc2cc(-c3cc(CN4CCN(CC5CC5)CC4)ccc3F)ccc2N2CCN(C)CC2)cn1` [Example 107, N-(5′-((4-(cyclopropylmethyl)piperazin-1-yl)methyl)-2′-fluoro-4-(4-methylpiperazin-1-yl)-[1,1′-biphenyl]-3-yl)-6-methoxy-4-(trifluoromethyl)nicotinamide], the Kd is greater than 200 nM under setting [1] and greater than 200 nM under setting [2].
As to `COc1cc(C(F)(F)F)c(C(=O)Nc2cc(-c3cc(CN4CC[C@@H](S(C)(=O)=O)C4)ccc3F)ccc2N2CCN(C)CC2)cn1` [Example 57, (R)—N-(2′-fluoro-4-(4-methylpiperazin-1-yl)-5′-((3-(methylsulfonyl)pyrrolidin-1-yl)methyl)-[1,1′-biphenyl]-3-yl)-6-methoxy-4-(trifluoromethyl)nicotinamide], the Kd is greater than 200 nM under setting [1] and greater than 200 nM under setting [2].
Consider `CN1CCN(c2ccc(-c3cc(CN4CCOCC4)ccc3F)cc2NC(=O)c2nc3ccccc3[nH]2)CC1` [Example 103, N-(2′-fluoro-4-(4-methylpiperazin-1-yl)-5′-(morpholinomethyl)-[1,1′-biphenyl]-3-yl)-1H-benzo[d]imidazole-2-carboxamide], for which the Kd is greater than 200 nM under setting [1] and greater than 200 nM under setting [2].
Turning to `CN1CCN(c2ccc(-c3cc(CN4CCOCC4)ccc3F)cc2NC(=O)c2n[nH]c(=O)cc2C(F)(F)F)CC1` [Example 20, N-(2′-fluoro-4-(4-methylpiperazin-1-yl)-5′-(morpholinomethyl)-[1,1′-biphenyl]-3-yl)-6-oxo-4-(trifluoromethyl)-1,6-dihydropyridazine-3-carboxamide], the Kd reads like this: under setting [1], 76 nM; under setting [2], 76 nM. Also, the residence time (SPR) came out at 0.41 min.
On to `CN1CC2CN(c3ccc(-c4cc(CN5CCOCC5)ccc4F)cc3NC(=O)c3c[nH]c(=O)cc3C(F)(F)F)CC2C1` (stereo not drawn) [Example 100, N-(2′-fluoro-4-(5-methylhexahydropyrrolo[3,4-c]pyrrol-2(1H)-yl)-5′-(morpholinomethyl)-[1,1′-biphenyl]-3-yl)-6-oxo-4-(trifluoromethyl)-1,6-dihydropyridine-3-carboxamide], for which the Kd under setting [1] was determined as 5930 nM and the Kd under setting [2] was determined as 5930 nM.
On to `CN1CCN(c2ccc(-c3cc(CN4CCOCC4)ccc3F)cc2NC(=O)c2cnc(N)cc2C(F)(F)F)CC1` [Example 109, 6-amino-N-(2′-fluoro-4-(4-methylpiperazin-1-yl)-5′-(morpholinomethyl)-[1,1′-biphenyl]-3-yl)-4-(trifluoromethyl)nicotinamide], for which the Kd was greater than 200 nM under setting [1] and greater than 200 nM under setting [2].
For the molecule `CN1CCN(c2ccc(-c3cc(CN4CCOCC4)ccc3Cl)cc2NC(=O)c2c[nH]c(=O)cc2C(F)(F)F)CC1` [Example 86, N-(2′-chloro-4-(4-methylpiperazin-1-yl)-5′-(morpholinomethyl)-[1,1′-biphenyl]-3-yl)-6-oxo-4-(trifluoromethyl)-1,6-dihydropyridine-3-carboxamide], the Kd is 35 nM under setting [1] and 34.5 nM under setting [2].

(Values after patent publication US11174250B2, “Substituted carboxamides as inhibitors of WDR5 protein-protein binding” (PROPELLON THERAPEUTICS INC., priority 2016, dated 2021).)
